The source of these data is patent publication US11395821B2, “Treatment of EGFR-driven cancer with fewer side effects” (G1 Therapeutics, Inc., priority 2017, dated 2022).

The conditions of data set [1]: cited from earlier work.
The conditions of data set [2]: cited from earlier work. The source holds these as a separate data set.
The conditions of data set [3]: cited from earlier work. The source holds these as a separate data set.
For data set [4] the following is noted: cited from earlier work; for Grade ≥3 decrease in neutrophil count: laboratory findings.
For data set [5] the following is noted: human, in vivo; cited from earlier work.
The test system of data set [6] is EGFR^ex20ins PDX NSCLC tumor fragments (LU0387, CrownBio). The data set is described as follows: Example 5: Compound IV +/- osimertinib in EGFR ex20ins PDX model. The format is in vivo, BALB/c nude mice. The conditions noted are these: once daily oral gavage, 17 days; Compound IV 100 mg/kg or osimertinib 10 mg/kg alone. An excerpt:
(§1) The x-axis is days from initiation measured in time and the y-axis is mean tumor volume measured in mm^3.
Tumors continued to be measured until they reached tumor burden (>3000 mm3).

Data set [7] concerns EGFR^ex19del/T790M PDX NSCLC tumor fragments (TM00219, Jackson Labs). The data set is described as follows: Example 4: Compound IV +/- osimertinib in EGFR ex19del/T790M PDX model. The format is in vivo, NSG mice. As to conditions: once daily oral gavage 28 days; Compound IV 100 mg/kg or osimertinib 2.5 mg/kg alone.
Description: as §1
The x-axis is days from initiation measured in time and the y-axis is median tumor volume measured in mm^3.
After 28 days tumors continued to be measured until they reached tumor burden (>2000 mm^3).

For data set [8] the following is noted: in vivo; cited from earlier work.
The conditions of data set [9]: cited from earlier work. This is another data set of the same source.
The conditions of data set [10]: cited from earlier work. This is another data set of the same source.
[11] abbreviates: all grades, GILOTRIF n=229, pemetrexed/cisplatin n=111.

Read-outs that look alike come from different tables or passages of the source.

For `CN(C)C/C=C/C(=O)Nc1cc2c(Nc3ccc(F)c(Cl)c3)ncnc2cc1O[C@H]1CCOC1` [GILOTRIF, afatinib], in data set [1] (3865 patients), the “fatal liver test abnormalities” value is 0.18% and the liver test abnormalities is recorded as 10.1%. In data set [1] (setting [11]), the diarrhea was 96%, the dry skin is on record as 31%, the paronychia is given as 58% and the pruritus was 21%. In data set [1] (setting [11]), the rash/acneiform dermatitis is 90% and the stomatitis is reported as 71%. In addition, in [1] (human, in vivo), the decreased appetite is 29%, the fatal pneumonia was 0.43%, the “fatal pulmonary toxicity/interstitial lung disease (ILD)-like adverse reactions” value was 1.3% and the fatal sepsis is reported as 0.43%. In data set [1] (human, in vivo), the nausea is 25%, the “serious adverse reaction: diarrhea” value was 6.6%, the “serious adverse reaction: dyspnea” value is given as 1.7% and the “serious adverse reaction: fatigue” value is listed as 1.7%. In addition, in [1] (human, in vivo), the “serious adverse reaction: hypokalemia” value is reported as 1.7%, the “serious adverse reaction: vomiting” value is 4.8%, the serious adverse reactions is listed as 29% and the “ventricular dysfunction (all <Grade 3)” value is reported as 2.2%. Also, the vomiting in [1] (human, in vivo) is given as 23%.

Take `COc1cc2ncnc(Nc3ccc(F)c(Cl)c3)c2cc1OCCCN1CCOCC1` [IRESSA, gefitinib]: the skin reactions in data set [2] (across NSCLC) is 47%. Besides, in [2] (human, in vivo), the “incidence of fatal hepatotoxicity” value is listed as 0.04%.

Take `C#Cc1cccc(Nc2ncnc3cc(OCCOC)c(OCCOC)cc23)c1.Cl` [TARCEVA, erlotinib]: in [3] (approximately 32,000 patients, all studies), the “overall incidence of ILD” value is “approximately 1.1%”. For the same compound, in data set [3] (human, in vivo), the “discontinued therapy due to adverse reactions” value is 14.3%, the “dose interruptions or reductions due to adverse reactions” value is listed as 37%, the “dose modification due to asthenia” value is listed as 3.6% and the “dose modification due to diarrhea” value was 10%. In [3] (human, in vivo), the “dose modification due to rash” value is reported as 13%; the “liver function test abnormalities (ALT, AST, bilirubin)” value was “Grade 2 and Grade 3 liver function test abnormalities”; the “median time to onset of diarrhea” value is 32 days; the “median time to onset of rash” value is listed as 15 days. In data set [3] (human, in vivo), the “most frequent Grade 3-4 adverse reactions” value is “rash and diarrhea”; the “most frequent adverse reactions: diarrhea, asthenia, rash, cough, dyspnea, decreased appetite” value is ≥ 30%. For the same compound, in data set [3] (patients with ILD), the “median onset of ILD symptoms after initiating therapy” value is listed as 39 days and the “onset of ILD symptoms after initiating therapy (span)” value was “between 5 days to more than 9 months”.

Turning to `CCN1CCN(Cc2ccc(Nc3ncc(F)c(-c4cc(F)c5nc(C)n(C(C)C)c5c4)n3)nc2)CC1` [abemaciclib], the “Grade ≥3 decrease in neutrophil count” value in data set [4] (MONARCH 1) is recorded as 27%. Besides, in [4] (alone, MONARCH 1), the “Grade 3 diarrhea” value is given as 20%, the diarrhea was 90% and the neutropenia is 37%. Further, in [4] (human, in vivo), the “alanine aminotransferase (ALT) increased” value is on record as 41%, the “aspartate aminotransferase (AST) increased” value was 37%, the “dose reductions due to diarrhea of any grade” value was 19% and the “dose reductions due to neutropenia of any grade” value is given as 10%. In addition, in [4] (human, in vivo), the “permanent treatment discontinuation due to an adverse event” value was 9%. Moreover, in [4] (plus fulvestrant, MONARCH 2), the “Grade 3 diarrhea” value is reported as 13%, the diarrhea is recorded as 86%, the neutropenia is listed as 46% and the “Grade ≥3 decrease in neutrophil count” value is given as 32%. In addition, in data set [4] (plus fulvestrant), the “dose reductions due to an adverse reaction” value is recorded as 43%.

In the case of `C=CC(=O)Nc1cc(Nc2nccc(-c3cn(C)c4ccccc34)n2)c(OC)cc1N(C)CCN(C)C` [osimertinib, reference compound], in data set [5], the nail toxicity was 22% and the “patients experiencing Grade 3 neutropenia” value is “up to 2.2%”. Further, the “tumor growth vs vehicle, single agent” value in [6] is “did not cause an effect”. In addition, the “tumor growth vs vehicle, single agent” value in data set [7] is recorded as “modest tumor growth inhibition”.

As to `CC(=O)c1c(C)c2cnc(Nc3ccc(N4CCNCC4)cn3)nc2n(C2CCCC2)c1=O` [palbociclib], in [8], the T½ entry is recorded as “roughly 27 hours”. Besides, the incidence of neutropenia in data set [9] (Study 1 (PALOMA-2)) is 80%. In addition, the incidence of neutropenia in [9] (Study 2 (PALOMA-3)) is 83%. Moreover, in data set [9] (human, in vivo), the complete drug discontinuation is reported as 8%, the “median duration of Grade ≥3 neutropenia” value is given as 7 days, the “median time to first episode of any grade neutropenia” value is 15 days and the “patients requiring a dose interruption” value is on record as 71%. In addition, in [9] (human, in vivo), the “patients requiring a dose reduction” value was 36%. Moreover, in data set [9] (patients in PALOMA-2 and PALOMA-3), the “Grade ≥3 decrease in neutrophil counts” value was 66%. Moreover, in data set [9] (patients treated), the increased alanine transferase is 40% and the “increased aspartate aminotransferase (AST)” value is recorded as 48%.

With `CN(C)C(=O)c1cc2cnc(Nc3ccc(N4CCNCC4)cn3)nc2n1C1CCCC1` [ribociclib], in data set [10] (KISQALI treatment arms), the “Grade 3 or 4 increases in ALT” value is 10% and the “Grade 3 or 4 increases in AST” value is reported as 7%. For the same compound, the “patients with at least one average QTcF interval of more than 480 msec after baseline” value in data set [10] (MONALEESA-2 study) is given as 3.3%. In data set [10] (adverse reaction), the alopecia is on record as 33%, the back pain is given as 20%, the constipation was 25% and the diarrhea is given as 35%. In addition, in data set [10] (adverse reaction), the fatigue is on record as 37%, the headache was 22%, the leukopenia is on record as 33% and the neutropenia is 75%. For the same compound, the vomiting in data set [10] (adverse reaction) is listed as 29%. In addition, the “Grade 3/4 decrease in neutrophil count” value in data set [10] (based on laboratory findings) is 60%. In addition, the “treatment discontinuation due to increased ALT” value in [10] (first mention) is 4%. Moreover, in [10] (human, in vivo), the QT interval entry is “prolong the QT interval in a concentration-dependent manner”, the “dose reductions due to adverse reactions” value is 45%, the “permanent discontinuations due to ARs” value was 7% and the “treatment discontinuation due to vomiting” value was 2%. Further, the “treatment discontinuation due to increased ALT” value in [10] (second mention) was 3%.
